The results in this text go back to publication PMC6920136 (Redox Biology, 2019).

One assay deals with Duox1 (Homo sapiens, UniProt Q9NRD9). Description: H2O2 synthesis assay in homogenates of HEK293T cells expressing Duox1/DuoxA1α. Type of assay: biochemical.
In a further assay the target is Duox2 (Homo sapiens, UniProt Q9NRD8). The assay is described as follows: H2O2 synthesis assay in homogenates of HEK293T cells expressing Duox2/DuoxA2. In kind it is biochemical.

The term IC50 denotes the concentration needed to halve the response being measured. Lower therefore signals greater potency in that assay.

Structures are written as SMILES.

Chain of Duox1 (Q9NRD9 22-1551): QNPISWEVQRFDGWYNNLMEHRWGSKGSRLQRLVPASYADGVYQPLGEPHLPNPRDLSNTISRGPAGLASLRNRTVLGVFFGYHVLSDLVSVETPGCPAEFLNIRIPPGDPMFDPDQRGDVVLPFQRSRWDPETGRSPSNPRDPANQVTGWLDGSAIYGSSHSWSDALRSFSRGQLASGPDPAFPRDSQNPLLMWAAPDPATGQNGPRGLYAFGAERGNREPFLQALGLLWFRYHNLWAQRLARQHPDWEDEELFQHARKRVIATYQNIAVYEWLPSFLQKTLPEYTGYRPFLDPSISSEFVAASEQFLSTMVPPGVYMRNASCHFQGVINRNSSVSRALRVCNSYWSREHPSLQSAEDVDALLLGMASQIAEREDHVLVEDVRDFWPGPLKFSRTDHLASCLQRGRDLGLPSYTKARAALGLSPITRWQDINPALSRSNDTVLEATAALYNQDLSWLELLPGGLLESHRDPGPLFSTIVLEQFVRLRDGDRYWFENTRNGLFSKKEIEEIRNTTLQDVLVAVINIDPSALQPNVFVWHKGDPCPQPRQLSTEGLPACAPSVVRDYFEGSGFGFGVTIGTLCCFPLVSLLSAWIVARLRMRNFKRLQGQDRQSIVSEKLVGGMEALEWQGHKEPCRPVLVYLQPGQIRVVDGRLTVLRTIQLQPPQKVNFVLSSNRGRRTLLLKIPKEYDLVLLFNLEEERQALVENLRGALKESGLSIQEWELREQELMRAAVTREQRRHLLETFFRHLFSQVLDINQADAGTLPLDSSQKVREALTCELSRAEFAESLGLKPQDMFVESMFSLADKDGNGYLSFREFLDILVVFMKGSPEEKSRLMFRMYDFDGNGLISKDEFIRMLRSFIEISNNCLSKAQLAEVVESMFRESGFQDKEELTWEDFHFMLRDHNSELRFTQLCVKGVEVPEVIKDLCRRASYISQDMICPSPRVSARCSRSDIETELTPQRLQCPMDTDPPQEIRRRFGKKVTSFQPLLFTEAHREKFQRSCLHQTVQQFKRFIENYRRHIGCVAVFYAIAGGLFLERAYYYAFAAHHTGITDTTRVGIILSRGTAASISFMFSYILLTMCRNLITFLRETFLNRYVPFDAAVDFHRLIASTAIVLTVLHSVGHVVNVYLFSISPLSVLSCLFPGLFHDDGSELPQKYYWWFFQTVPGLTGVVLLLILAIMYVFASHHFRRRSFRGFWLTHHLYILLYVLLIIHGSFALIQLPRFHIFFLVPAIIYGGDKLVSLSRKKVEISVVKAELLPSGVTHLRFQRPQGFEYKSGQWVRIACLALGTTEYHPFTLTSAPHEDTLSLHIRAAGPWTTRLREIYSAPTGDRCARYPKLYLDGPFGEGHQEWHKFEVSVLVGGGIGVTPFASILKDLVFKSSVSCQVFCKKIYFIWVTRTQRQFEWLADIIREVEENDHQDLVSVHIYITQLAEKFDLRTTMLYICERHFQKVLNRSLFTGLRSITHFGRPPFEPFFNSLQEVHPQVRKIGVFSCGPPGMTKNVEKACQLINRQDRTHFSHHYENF
Chain of Duox1 (Q1HG43 whole entry partner): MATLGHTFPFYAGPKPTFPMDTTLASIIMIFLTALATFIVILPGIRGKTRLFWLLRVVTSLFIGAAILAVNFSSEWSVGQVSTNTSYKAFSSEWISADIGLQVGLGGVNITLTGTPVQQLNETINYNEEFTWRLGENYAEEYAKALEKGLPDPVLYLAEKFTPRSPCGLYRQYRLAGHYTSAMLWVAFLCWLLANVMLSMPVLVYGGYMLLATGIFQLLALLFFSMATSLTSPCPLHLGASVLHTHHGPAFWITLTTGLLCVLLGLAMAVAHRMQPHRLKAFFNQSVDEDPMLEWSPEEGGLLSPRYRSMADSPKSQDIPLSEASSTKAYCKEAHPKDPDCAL
Chain of Duox2 (Q9NRD8 26-1548): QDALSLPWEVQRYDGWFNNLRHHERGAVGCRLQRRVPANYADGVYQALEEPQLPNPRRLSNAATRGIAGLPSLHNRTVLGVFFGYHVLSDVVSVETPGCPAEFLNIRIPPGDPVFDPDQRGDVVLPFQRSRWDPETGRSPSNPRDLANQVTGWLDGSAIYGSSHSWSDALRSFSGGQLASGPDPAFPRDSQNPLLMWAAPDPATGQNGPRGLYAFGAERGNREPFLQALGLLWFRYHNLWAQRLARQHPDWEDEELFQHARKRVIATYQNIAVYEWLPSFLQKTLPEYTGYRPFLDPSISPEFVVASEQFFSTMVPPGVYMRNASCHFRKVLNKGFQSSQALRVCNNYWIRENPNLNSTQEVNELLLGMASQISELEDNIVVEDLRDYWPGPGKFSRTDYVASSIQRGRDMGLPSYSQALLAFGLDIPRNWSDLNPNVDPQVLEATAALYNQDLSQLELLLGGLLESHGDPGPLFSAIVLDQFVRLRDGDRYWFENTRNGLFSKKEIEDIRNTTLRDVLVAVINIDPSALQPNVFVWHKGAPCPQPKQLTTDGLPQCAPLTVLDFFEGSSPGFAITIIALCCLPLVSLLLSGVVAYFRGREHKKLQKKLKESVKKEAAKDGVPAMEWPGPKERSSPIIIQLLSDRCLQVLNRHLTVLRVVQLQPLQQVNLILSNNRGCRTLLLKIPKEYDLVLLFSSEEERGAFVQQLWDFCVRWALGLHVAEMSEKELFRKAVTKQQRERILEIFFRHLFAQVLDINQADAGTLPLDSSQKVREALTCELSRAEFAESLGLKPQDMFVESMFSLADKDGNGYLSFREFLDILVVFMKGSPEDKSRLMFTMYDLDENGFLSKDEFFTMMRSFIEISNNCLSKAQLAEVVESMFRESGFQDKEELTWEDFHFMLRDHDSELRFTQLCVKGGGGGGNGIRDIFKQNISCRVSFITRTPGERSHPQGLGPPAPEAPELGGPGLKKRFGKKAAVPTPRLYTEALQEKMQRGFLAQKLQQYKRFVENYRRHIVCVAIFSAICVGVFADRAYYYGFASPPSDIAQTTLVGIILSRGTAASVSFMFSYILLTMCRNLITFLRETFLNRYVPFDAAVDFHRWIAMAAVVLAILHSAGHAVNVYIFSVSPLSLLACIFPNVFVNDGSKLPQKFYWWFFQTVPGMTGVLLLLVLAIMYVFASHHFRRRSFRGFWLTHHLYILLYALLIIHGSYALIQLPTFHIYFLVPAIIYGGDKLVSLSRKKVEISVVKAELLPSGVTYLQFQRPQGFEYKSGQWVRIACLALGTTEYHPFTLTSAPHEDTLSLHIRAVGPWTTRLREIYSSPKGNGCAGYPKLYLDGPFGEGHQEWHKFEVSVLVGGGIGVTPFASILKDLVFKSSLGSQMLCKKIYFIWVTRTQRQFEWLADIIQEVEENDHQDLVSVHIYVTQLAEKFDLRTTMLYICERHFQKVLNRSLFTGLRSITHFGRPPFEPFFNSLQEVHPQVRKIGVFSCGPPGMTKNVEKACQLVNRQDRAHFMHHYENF
Chain of Duox2 (Q1HG44 whole entry partner): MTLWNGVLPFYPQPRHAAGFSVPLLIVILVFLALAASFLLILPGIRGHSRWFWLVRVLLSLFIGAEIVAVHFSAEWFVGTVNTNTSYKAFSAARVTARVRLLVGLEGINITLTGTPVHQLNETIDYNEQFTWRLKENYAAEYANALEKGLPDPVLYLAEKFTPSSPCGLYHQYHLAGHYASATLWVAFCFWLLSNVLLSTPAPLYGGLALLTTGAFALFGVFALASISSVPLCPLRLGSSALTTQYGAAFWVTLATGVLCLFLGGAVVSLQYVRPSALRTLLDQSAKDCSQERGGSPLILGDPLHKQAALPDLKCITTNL

As to `N=C(N)Nc1nc2ccc(Cl)cc2[nH]1` [ClGBI, 5-chloro-2-guanidinobenzimidazole], the IC50 against Duox1 is 140 µM; at Duox2 it was 110 µM.
